Reference: article PMC10540216, “Activity Guided Azide-methyllysine Photo-trapping for Substrate Profiling of Lysine Demethylases” (Journal of the American Chemical Society, 2023)
“Also recorded” adds a separate entry of the source. Where no end group is shown, it is not given here. [ ]: non-standard residue; d: D form. Lys(Me3) = C[N+](C)(C)CCCC[C@H](N)C(=O)O

Legend:
KDM4E = test: Demethylase activity of wild type KDM4E on peptide substrates (MALDI-TOF MS); format: biochemical; details: 10 µM enzyme, 10 µM peptide, 1 mM 2OG, 50 mM Tris pH 8, 37°C, three hours
Experimental: 200 FPLC column. The proteins were concentrated via centrifugation. Protein concentration was determined using Bradford assay.
The N-terminal 6xHis-tagged KDM4E construct for bacterial expression was purchased from Addgene (#38990) and expressed following reported method.8 The wild type KDM4E plasmid was transformed into E. Coli BL21 (DE3) competent cells (Invitrogen) using pNIC28-Bsa4 kanamycin-resistant vector. A single colony was grown overnight at 37 °C in 10 mL of Luria-Bertani (LB) broth in the presence of 50 μg/mL kanamycin and 35 μg/mL chloramphenicol. The culture was diluted 100-fold and allowed to grow at 37 °C to an optical density (OD600) of 0.8, and protein expression was induced overnight at 17 °C with 1 mM IPTG in an Innova 44® Incubator shaker (New Brunswick Scientific). KDM4E was purified from pelleted cells by resuspending in lysis buffer (50 mM Tris-HCl pH 8.0, 200 mM NaCl, 5 mM β-ME, 10% glycerol, 25 mM imidazole, lysozyme, DNase, and Pierce protease inhibitor cocktail). The cells were lysed by sonication at 60 mA, 10 seconds on followed by 10 seconds off, for a total of 2 minutes. The cell debris was pelleted at 13,000 rpm for 40 minutes. The soluble cell extracts were incubated with Ni-NTA agarose resin (Thermo) according to manufactures protocol. […] Bradford Dye (BioRad) was used to quantify the protein concentration using BSA as a standard. […]

CBX1 chromodomain [1] = target: T1, CBX1 chromodomain (Homo sapiens, UniProt P83916); test: Isothermal titration calorimetry of peptide binding to CBX1 chromodomain; details: ITC, T 288.15 K in Table S6
T1 construct: occupied by CBX1 chromodomain at a concentration of 110 µM; 6xHis (N); made in house

CBX1 chromodomain [2] = target: T1, CBX1 chromodomain; test: as above; details: ITC, 25 °C, 1.1 mM peptide into 110 µM CBX1 chromodomain, 50mM Tris pH 8.0
Experimental: (§1) 7. Expression and purification of lysine methyltransferases and Chromodomains […]
17. Isothermal Titration Calorimetry
Isothermal titration calorimetry (ITC) was performed with an ITC200 instrument (MicroCal, Malvern). Experiments were conducted at 25 °C while stirring at 750 rpm. Buffers of protein […]
were matched to 200mM NaCl, 10% glycerol, and 50mM Tris pH 8.0. Each titration was performed as follows: one initial injection of 0.4 µL for 0.8 seconds, followed by 19 injections of 2.0 µL for 4 seconds, with ≥2 mins between each injection. The initial injection was discarded prior to data analysis. The microsyringe (40µL) was loaded with 1.1 mM peptide and injected into the cell (200µL), occupied by CBX1 chromodomain at a concentration of 110 µM. Data was fitted to a single binding site model using Microcal ITC200 Software with Origin Lab 7.
(§2) KDM4A mammalian expression plasmid in CMV vector was purchased from Addgene (plasmid #24180). Full-length G9a in pCDNA3 vector was kind from Prof. Minkui Luo at the Memorial Sloan-Kettering Cancer Center. HEK293T/17 cells (ATCC) were grown in a T25 containing Delbucco’s Modified Eagle Medium (DMEM) (Corning) with 10% FBS at 37 °C, 5% CO2, and 95% relative humidity. When cells reached 80% confluency, 5 µg of plasmid and 10 µg

METTL21A = test: Methylation of eIF4A3-K374 peptides by KMT (MALDI-TOF MS); format: biochemical; details: 20 µM KMT, 10 µM peptide, 200 µM SAM
Experimental: (§3) expression constructs in pET28a or pET 28-MHL were obtained from Addgene: CAMKMT […]
(§4) (Addgene #60091) and METTL21C (Addgene #60100). Plasmids were transformed into E. Coli BL21 (DE3) competent cells (Invitrogen) using appropriate resistant antibiotic. A single colony was picked up and grown overnight at 37 °C in 10 mL of Luria-Bertani (LB) broth in the presence of 50 μg/mL kanamycin and 35 μg/mL chloramphenicol. The culture was diluted 100-fold and allowed to grow at 37 °C to an optical density (OD600) of a minimum of 0.8, and protein expression was induced overnight at 17 °C with 0.5 to 1.0 mM IPTG in an Innova 44® Incubator shaker (New Brunswick Scientific). Proteins were purified as follows: harvested cells were resuspended in 15 mL lysis buffer (50 mM Tris-HCl pH 8.0, 200 mM NaCl, 5 mM β-mercaptoethanol, 10% glycerol, 25 mM imidazole, Lysozyme, DNase, and Roche protease inhibitor cocktail). The cells were lysed by pulsed sonication (Qsonica-Q700), and centrifuged at 13,000 rpm for 40 min at 4°C. The soluble extracts were subject to Ni-NTA agarose resin (Thermo) according to manufacturer’s instructions. After passing 20 volumes of washing buffer (50 mM Tris-HCl pH 8.0, 200 mM NaCl, 5 mM β-mercaptoethanol, 10% glycerol, and 25 mM imidazole), proteins were eluted with a buffer containing 50 mM Tris-HCl pH 8.0, 200 mM NaCl, 5 mM β-mercaptoethanol, 10% glycerol, and 400 mM imidazole. Proteins were further purified by size exclusion chromatography (Superdex-200) using AKTA pure FPLC system (GE healthcare) with buffer containing 50 mM Tris-HCl pH 8.0, 200 mM NaCl, and 10% glycerol. Purified proteins were concentrated using Pierce™ Protein Concentrator PES, 10K MWCO, 5-20 mL (Thermo Scientific™ 88527). The protein concentration was determined using Bradford assay kit (BioRad Laboratories) with BSA as a standard. The concentrated proteins were stored at -80 °C before use. […]
(§5) 16. Methylation activity of wild type KMTs on eIF4A3-K374me0/1/2 peptides 20 µM lysine methyltransferase, 10 µM eIF4A3-me0/1/2 peptide and 200 µM SAM were incubated at room temperature for 1-2 hours in 50 mM Tris pH 8.0. Reaction was stopped by storing the microcentrifuge tubes on ice. After mixing, 0.8 µL of sample and 0.8 µL of α-cyano-4-hydroxycinnamic acid (CHCA) (dissolved in 50:50 0.1% TFA and acetonitrile) were combined on a MALDI plate. Samples were ionized using reflectron positive mode on Bruker Daltonics UltrafleXtreme MALDI TOF with detection carried out from 700-3500 m/z. Bruker Flex Analysis software was used to analyze the MALDI-TOF MS spectra.
(§6) 17. Isothermal Titration Calorimetry […]
(§7) The microsyringe (40µL) was loaded with 1.1 mM peptide and injected into the cell (200µL), occupied by CBX1 chromodomain at a concentration of 110 µM. […]

METTL21C = test: as above; format: biochemical; details: 20 µM KMT, 10 µM peptide, 200 µM SAM
Experimental: as §3, §4, §5, §6, §7

METTL20 = test: as above; format: biochemical; details: 20 µM KMT, 10 µM peptide, 200 µM SAM
Experimental: as §3, §4, §5, §6, §7

DOT1L = test: as above; format: biochemical; details: 20 µM KMT, 10 µM peptide, 200 µM SAM
Experimental: as §3, §4, §5, §6, §7

SUV39H2 = test: as above; format: biochemical; details: 20 µM KMT, 10 µM peptide, 200 µM SAM
Experimental: as §1, §5, §6
(§8) The microsyringe (40µL) was loaded with 1.1 mM peptide and injected into the cell (200µL), occupied by CBX1 chromodomain at a concentration of 110 µM. Data was fitted to a single binding site model using Microcal ITC200 Software with Origin Lab 7.
as §2

G9a = test: as above; format: biochemical; details: 20 µM KMT, 10 µM peptide, 200 µM SAM
Experimental: as §1, §5, §6, §8, §2

T1 sequence (P83916 21-79 limits assumed): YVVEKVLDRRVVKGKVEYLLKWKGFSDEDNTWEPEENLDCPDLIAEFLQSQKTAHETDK

## NTKRESGR[Lys(Me3)]VQSGNINA [compound 15, TCPG-K21me3 peptide]
KDM4E
  demethylation by KDM4E: marginally demethylated only by KDM4E

## GRSGRYGRKGVAINFVK [compound 21, eIF4A3-K374me0 peptide]
CBX1 chromodomain [1]
  TΔS: 0 kcal/mol
  ΔG: 0 kcal/mol
  ΔH: 0 kcal/mol
  ΔS: 0 cal/mol/degree
CBX1 chromodomain [2]
  binding to CBX1 chromodomain (in words): no detectable interaction
METTL21A
  methylation by METTL21A (in words): failed to methylate
METTL21C
  methylation by METTL21C (in words): failed to methylate
METTL20
  methylation by METTL20 (in words): failed to methylate
DOT1L
  methylation by DOT1L (in words): failed to methylate
SUV39H2
  methylation by SUV39H2 (in words): also methylated eIF4A3-K374me0; also recorded: monomethylated
G9a
  methylation by G9a (in words): also methylated eIF4A3-K374me0; also recorded: di- and trimethylation
